Source: article PMC3828125 (Biochemistry, 2011)
Read-outs that look alike come from different tables or passages of the source. Marks after values point to notes of the source that are not given here.

Assays:
CYP3A4 [1] = target: CYP3A4 (Homo sapiens, UniProt P08684); conditions: for Km at 2 min: human, fit to eq 1
CYP3A4 [2] = target: T1, CYP3A4 (Homo sapiens, UniProt P08684, S18F); conditions: read-out: experimental KM for 1′-OH-MDZ formation; ref [23], [86]–[88]; cited from earlier work
CYP3A4 [3] = target: T1, CYP3A4
CYP3A4 [4] = target: T1, CYP3A4; assay: Absorbance difference titrations of recombinant CYP3A4 with MDZ and CBZ
CYP3A4 [5] = target: T1, CYP3A4; remark: listed apart in the source
CYP3A4 [6] = target: T1, CYP3A4; conditions: read-out: Km of 10,11-epoxide formation; ref [26], [89]; cited from earlier work
[7] = target: recombinant human cytochrome P450 3A4 (CYP3A4 NF14 construct) (human) (UniProt P08684); assay: SEC
[8] = 260 μM Midazolam alone, 1 μM CYP3A4
[9] = 260 μM Midazolam alone, 1 μM CYP3A4, eq 6
[10] = 260 μM Midazolam with 260 μM Carbamazepine bound simultaneously, 1 μM CYP3A4
[11] = 260 μM Carbamazepine alone, 1 μM CYP3A4
[12] = 260 μM Carbamazepine alone, 1 μM CYP3A4, chemical equivalence (eq 7)
[13] = 260 μM Carbamazepine alone, 1 μM CYP3A4, eq 6

In the case of `Cc1ncc2n1-c1ccc(Cl)cc1C(c1ccccc1F)=NC2` [MDZ, midazolam], the “[MDZ] at which velocity of 1′-OH-MDZ formation reaches a maximum” value (CYP3A4 [1]; absence of CBZ) is reported as 25 µM, the Km at 2 min (CYP3A4 [1]; pH 7.4, Km of 1′-OH-MDZ formation, presence of 240 μM CBZ) is reported as 12.5 ± 2.1 µM and the Km at 2 min (CYP3A4 [1]; pH 7.4, Km of 4-OH-MDZ formation, absence of CBZ) is reported as 47.5 ± 6.8 µM. The Km at 2 min (CYP3A4 [1]; pH 7.4, Km of 4-OH-MDZ formation, presence of 240 μM CBZ) was 57.7 ± 2.1 µM, the Km (CYP3A4 [2]) was 5 to 11 µM and the “RFe2+-CO, proton peak 1′” value (CYP3A4 [3]; [8]) was 1.53 ± 0.04 s⁻¹. The “RFe2+-CO, proton peak 3” value (CYP3A4 [3]; [8]) was 1.45 ± 0.18 s⁻¹, the “RFe2+-CO, proton peak 3F” value (CYP3A4 [3]; [8]) was 1.46 ± 0.20 s⁻¹ and the “RFe2+-CO, proton peak 4F” value (CYP3A4 [3]; [8]) was 1.91 ± 0.07 s⁻¹. For the same compound, the “RFe2+-CO, proton peak 5F” value (CYP3A4 [3]; [8]) was 1.72 ± 0.10 s⁻¹, the “RFe2+-CO, proton peak 6F” value (CYP3A4 [3]; [8]) was 1.83 ± 0.11 s⁻¹ and the “RFe2+-CO, proton peak 7” value (CYP3A4 [3]; [8]) was 1.67 ± 0.09 s⁻¹. For the same compound, the “RFe2+-CO, proton peak 9” value (CYP3A4 [3]; [8]) was 1.65 ± 0.12 s⁻¹, the “RFe2+-CO, proton peak 10” value (CYP3A4 [3]; [8]) was 1.81 ± 0.11 s⁻¹ and the “RFe3+, proton peak 1′” value (CYP3A4 [3]; [8]) was 2.18 ± 0.02 s⁻¹. The “RFe3+, proton peak 3” value (CYP3A4 [3]; [8]) was 1.88 ± 0.04 s⁻¹, the “RFe3+, proton peak 3F” value (CYP3A4 [3]; [8]) was 1.60 ± 0.07 s⁻¹ and the “RFe3+, proton peak 4F” value (CYP3A4 [3]; [8]) was 1.85 ± 0.04 s⁻¹. For the same compound, the “RFe3+, proton peak 5F” value (CYP3A4 [3]; [8]) was 2.17 ± 0.06 s⁻¹, the “RFe3+, proton peak 6F” value (CYP3A4 [3]; [8]) was 1.88 ± 0.05 s⁻¹ and the “RFe3+, proton peak 7” value (CYP3A4 [3]; [8]) was 1.81 ± 0.05 s⁻¹. For the same compound, the “RFe3+, proton peak 9” value (CYP3A4 [3]; [8]) was 2.97 ± 0.17 s⁻¹, the “RFe3+, proton peak 10” value (CYP3A4 [3]; [8]) was 2.85 ± 0.06 s⁻¹ and the “RP, proton peak 1′” value (CYP3A4 [3]; [8]) was 0.65 ± 0.05 s⁻¹. For the same compound, the “RP, proton peak 3” value (CYP3A4 [3]; [8]) was 0.43 ± 0.18 s⁻¹, the “RP, proton peak 3F” value (CYP3A4 [3]; [8]) was 0.14 ± 0.21 s⁻¹ and the “RP, proton peak 4F” value (CYP3A4 [3]; [8]) was -0.06 ± 0.08 s⁻¹. For the same compound, the “RP, proton peak 5F” value (CYP3A4 [3]; [8]) was 0.45 ± 0.11 s⁻¹, the “RP, proton peak 6F” value (CYP3A4 [3]; [8]) was 0.05 ± 0.12 s⁻¹ and the “RP, proton peak 7” value (CYP3A4 [3]; [8]) was 0.14 ± 0.10 s⁻¹. The “RP, proton peak 9” value (CYP3A4 [3]; [8]) was 1.31 ± 0.20 s⁻¹, the “RP, proton peak 10” value (CYP3A4 [3]; [8]) was 1.03 ± 0.12 s⁻¹ and the “rmin, proton peak 4F” value (CYP3A4 [3]; 260 μM Midazolam alone, 1 μM CYP3A4, calculated using the highest RP) was 17.02 ^c Å. The “rmin, proton peak 1′” value (CYP3A4 [3]; 260 μM Midazolam alone, 1 μM CYP3A4, chemical equivalence (eq 7)) was 7.62±0.18 ^b Å, the “rapp, proton peak 1′” value (CYP3A4 [3]; [9]) was 9.15±0.22 Å and the “rapp, proton peak 3” value (CYP3A4 [3]; [9]) was 9.79±0.71 Å. The “rapp, proton peak 3F” value (CYP3A4 [3]; [9]) was 11.84±2.95 Å, the “rapp, proton peak 5F” value (CYP3A4 [3]; [9]) was 9.75±0.46 Å and the “rapp, proton peak 6F” value (CYP3A4 [3]; [9]) was 14.13±6.01 Å. For the same compound, the “rapp, proton peak 7” value (CYP3A4 [3]; [9]) was 11.83±1.50 Å, the “rapp, proton peak 9” value (CYP3A4 [3]; [9]) was 8.14±0.27 Å and the “rapp, proton peak 10” value (CYP3A4 [3]; [9]) was 8.47±0.24 Å. For the same compound, the “RFe2+-CO, proton peak 1′” value (CYP3A4 [3]; [10]) was 1.57 ± 0.04 s⁻¹, the “RFe2+-CO, proton peak 3” value (CYP3A4 [3]; [10]) was 1.44 ± 0.12 s⁻¹ and the “RFe2+-CO, proton peak 3F” value (CYP3A4 [3]; [10]) was 1.54 ± 0.18 s⁻¹. The “RFe2+-CO, proton peak 4F” value (CYP3A4 [3]; [10]) was ~ 1 sec^−1, the “RFe2+-CO, proton peak 5F” value (CYP3A4 [3]; [10]) was 1.16 ± 0.19 s⁻¹ and the “RFe2+-CO, proton peak 6F” value (CYP3A4 [3]; [10]) was 1.76 ± 0.13 s⁻¹. For the same compound, the “RFe2+-CO, proton peak 7” value (CYP3A4 [3]; [10]) was 1.41 ± 0.06 s⁻¹, the “RFe2+-CO, proton peak 9” value (CYP3A4 [3]; [10]) was 1.26 ± 0.07 s⁻¹ and the “RFe2+-CO, proton peak 10” value (CYP3A4 [3]; [10]) was 1.76 ± 0.09 s⁻¹. For the same compound, the “RFe3+, proton peak 1′” value (CYP3A4 [3]; [10]) was 2.13 ± 0.04 s⁻¹, the “RFe3+, proton peak 3” value (CYP3A4 [3]; [10]) was 1.82 ± 0.06 s⁻¹ and the “RFe3+, proton peak 3F” value (CYP3A4 [3]; [10]) was 2.04 ± 0.05 s⁻¹. For the same compound, the “RFe3+, proton peak 4F” value (CYP3A4 [3]; [10]) was 1.08 ± 0.05 s⁻¹, the “RFe3+, proton peak 5F” value (CYP3A4 [3]; [10]) was 1.05 ± 0.04 s⁻¹ and the “RFe3+, proton peak 6F” value (CYP3A4 [3]; [10]) was 1.69 ± 0.24 s⁻¹. The “RFe3+, proton peak 7” value (CYP3A4 [3]; [10]) was 1.70 ± 0.05 s⁻¹, the “RFe3+, proton peak 9” value (CYP3A4 [3]; [10]) was 2.37 ± 0.07 s⁻¹ and the “RFe3+, proton peak 10” value (CYP3A4 [3]; [10]) was 2.69 ± 0.06 s⁻¹. The “RP, proton peak 1′” value (CYP3A4 [3]; [10]) was 0.56 ± 0.06 s⁻¹, the “RP, proton peak 3” value (CYP3A4 [3]; [10]) was 0.38 ± 0.13 s⁻¹ and the “RP, proton peak 3F” value (CYP3A4 [3]; [10]) was 0.50 ± 0.19 s⁻¹. The “RP, proton peak 4F” value (CYP3A4 [3]; [10]) was 0.07 ± 0.12 s⁻¹, the “RP, proton peak 5F” value (CYP3A4 [3]; [10]) was -0.11 ± 0.19 s⁻¹ and the “RP, proton peak 6F” value (CYP3A4 [3]; [10]) was -0.07 ± 0.27 s⁻¹. The “RP, proton peak 7” value (CYP3A4 [3]; [10]) was 0.29 ± 0.08 s⁻¹, the “RP, proton peak 9” value (CYP3A4 [3]; [10]) was 1.11 ± 0.10 s⁻¹ and the “RP, proton peak 10” value (CYP3A4 [3]; [10]) was 0.93 ± 0.11 s⁻¹. For the same compound, the “average RP of the fluorophenyl protons” value (CYP3A4 [3]; MDZ alone) was 0.15 s⁻¹, the “average distance of chlorophenyl group from heme” value (CYP3A4 [3]; MDZ alone, calculated from RPs) was ~ 10 Å and the “average distance of fluorophenyl group from heme” value (CYP3A4 [3]; MDZ alone, calculated from RPs) was ~ 13 Å. For the same compound, the “distance of 1′-CH3 from heme” value (CYP3A4 [3]; MDZ alone, depending on the orientation) was 7.6–9.2 Å, the “average RP of the fluorophenyl protons” value (CYP3A4 [3]; MDZ in the presence of CBZ) was 0.1 s⁻¹ and the “Δε at 100 μM MDZ in the titration curve” value (CYP3A4 [4]; 120 μM CBZ) was ~ 0.015 μM^−1 cm^−1. The “Amax of the MDZ titration curve” value (CYP3A4 [4]; absence of CBZ) was 0.0342 ± 0.0083 µM⁻¹ cm⁻¹, the Kd (CYP3A4 [4]; human, pH 7.4) was 70.6 ± 29 µM and the “Δε at 100 μM MDZ in the titration curve” value (CYP3A4 [4]; no CBZ) was ~ 0.025 μM^−1 cm^−1. For the same compound, the “%HS of CYP3A4 heme” value (CYP3A4 [5]; 260 μM MDZ and 260 μM CBZ together, 1 μM CYP3A4) was 55% and the “%HS of CYP3A4 heme” value (CYP3A4 [5]; 260 μM MDZ, 1 μM CYP3A4 (33% HS without ligands)) was 70%.
In the case of `NC(=O)N1c2ccccc2C=Cc2ccccc21` [CBZ, carbamazepine], the “effect of CBZ on 1′-OH-MDZ and 4-OH-MDZ formation” value (CYP3A4 [1]; low [MDZ], 240 μM CBZ) is given as “competitively inhibit”, the “effect of CBZ on 1′-OH-MDZ formation” value (CYP3A4 [1]; saturating CBZ (240 μM), near saturating MDZ) is given as “only partially inhibited” and the Km (CYP3A4 [6]) is given as 119 to 442 µM. For the same compound, the “RFe2+-CO, proton peak aa′” value (CYP3A4 [3]; [11]) was 1.67 ± 0.11 s⁻¹, the “RFe2+-CO, proton peak bb′” value (CYP3A4 [3]; [11]) was 1.54 ± 0.09 s⁻¹ and the “RFe2+-CO, proton peak cc′” value (CYP3A4 [3]; [11]) was 1.59 ± 0.10 s⁻¹. For the same compound, the “RFe2+-CO, proton peak dd′” value (CYP3A4 [3]; [11]) was 1.47 ± 0.09 s⁻¹, the “RFe2+-CO, proton peak ee′” value (CYP3A4 [3]; [11]) was 1.52 ± 0.09 s⁻¹ and the “RFe3+, proton peak aa′” value (CYP3A4 [3]; [11]) was 2.44 ± 0.24 s⁻¹. The “RFe3+, proton peak bb′” value (CYP3A4 [3]; [11]) was 2.56 ± 0.33 s⁻¹, the “RFe3+, proton peak cc′” value (CYP3A4 [3]; [11]) was 2.38 ± 0.23 s⁻¹ and the “RFe3+, proton peak dd′” value (CYP3A4 [3]; [11]) was 2.50 ± 0.25 s⁻¹. For the same compound, the “RFe3+, proton peak ee′” value (CYP3A4 [3]; [11]) was 2.22 ± 0.20 s⁻¹, the “RP, proton peak aa′” value (CYP3A4 [3]; [11]) was 0.77 ± 0.26 s⁻¹ and the “RP, proton peak bb′” value (CYP3A4 [3]; [11]) was 1.03 ± 0.34 s⁻¹. The “RP, proton peak cc′” value (CYP3A4 [3]; [11]) was 0.79 ± 0.25 s⁻¹, the “RP, proton peak dd′” value (CYP3A4 [3]; [11]) was 1.03 ± 0.26 s⁻¹ and the “RP, proton peak ee′” value (CYP3A4 [3]; [11]) was 0.71 ± 0.22 s⁻¹. For the same compound, the “rmin, proton peak aa′” value (CYP3A4 [3]; [12]) was 7.02±0.40 ^b Å, the “rmin, proton peak bb′” value (CYP3A4 [3]; [12]) was 6.69±0.38 ^b Å and the “rmin, proton peak cc′” value (CYP3A4 [3]; [12]) was 6.98±0.37 ^b Å. For the same compound, the “rmin, proton peak dd′” value (CYP3A4 [3]; [12]) was 6.69±0.29 ^b Å, the “rmin, proton peak ee′” value (CYP3A4 [3]; [12]) was 7.12±0.37 ^b Å and the “rapp, proton peak bb′” value (CYP3A4 [3]; [13]) was 7.51±0.42 Å. The “rapp, proton peak cc′” value (CYP3A4 [3]; [13]) was 7.84±0.41 Å, the “rapp, proton peak dd′” value (CYP3A4 [3]; [13]) was 7.51±0.33 Å and the “rapp, proton peak ee′” value (CYP3A4 [3]; [13]) was 7.99±0.41 Å. For the same compound, the “calculated proton-heme distances on average” value (CYP3A4 [3]; CBZ alone) was 7–8 Å, the “variation in the proton RPs” value (CYP3A4 [3]; CBZ alone) was 30% and the “RP of CBZ protons” value (CYP3A4 [3]; in the presence of MDZ) was < 0.04. The “Amax of the CBZ titration curve” value (CYP3A4 [4]; CBZ alone, fit to eq 3) was 0.0049 ± 0.0007 µM⁻¹ cm⁻¹ and the “%HS of CYP3A4 heme” value (CYP3A4 [5]; 260 μM CBZ, 1 μM CYP3A4 (33% HS without ligands)) was 34%.
“recombinant human cytochrome P450 3A4 (CYP3A4 NF14 construct) (from UniProt P08684 1-503) (enzyme)” gave a stoichiometry N [7] of 4.
